Measured values as given in ChEMBL document CHEMBL4715724, “Novel 5-substituted-2-anilinoquinolines with 3-(morpholino or 4-methylpiperazin-1-yl)propoxy moiety as broad spectrum antiproliferative agents: Synthesis, cell based assays and kinase screening” (Bioorg Med Chem Lett, 2016).
Values belong to the compound of their own block, whether it stands above or below them.

What was measured:
Format in all cases: functional
NCI-H226 = experiment: cells; settings: Homo sapiens, time 48 hrs
Description: Growth inhibition of human NCI-H226 cells incubated for 48 hrs by sulforhodamine B assay

[1] = test system: Panel NCI-60 (60 carcinoma cell lines); experiment: cells; settings: Homo sapiens, time 48 hrs
Description: Growth inhibition of human Panel NCI-60 (60 carcinoma cell lines) incubated for 48 hrs by sulforhodamine B assay

cells = settings: Homo sapiens, Non-small cell lung cancer cell line; time 48 hrs
Description: Growth inhibition of human Non-small cell lung cancer cell line incubated for 48 hrs by sulforhodamine B assay

MCF7 = experiment: cells; settings: Homo sapiens, time 48 hrs
Description: Growth inhibition of human MCF7 cells incubated for 48 hrs by sulforhodamine B assay

NCI-H23 = experiment: cells; settings: Homo sapiens, time 48 hrs
Description: Growth inhibition of human NCI-H23 cells incubated for 48 hrs by sulforhodamine B assay

NCI-H522 = experiment: cells; settings: Homo sapiens, time 48 hrs
Description: Growth inhibition of human NCI-H522 cells incubated for 48 hrs by sulforhodamine B assay

U-251 = experiment: cells; settings: Homo sapiens, time 48 hrs
Description: Growth inhibition of human U-251 cells incubated for 48 hrs by sulforhodamine B assay

[2] = test system: Panel breast (Carcinoma cell lines); experiment: cells; settings: Homo sapiens, time 48 hrs
Description: Growth inhibition of human Panel breast (Carcinoma cell lines) incubated for 48 hrs by sulforhodamine B assay

SR = experiment: cells; settings: Homo sapiens, time 48 hrs
Description: Growth inhibition of human SR cells incubated for 48 hrs by sulforhodamine B assay

NCI-H322M = experiment: cells; settings: Homo sapiens, time 48 hrs
Description: Growth inhibition of human NCI-H322M cells incubated for 48 hrs by sulforhodamine B assay

[3] = test system: Panel melanoma (Carcinoma cell lines); experiment: cells; settings: Homo sapiens, time 48 hrs
Description: Growth inhibition of human Panel melanoma (Carcinoma cell lines) incubated for 48 hrs by sulforhodamine B assay

UACC-62 = experiment: cells; settings: Homo sapiens, time 48 hrs
Description: Growth inhibition of human UACC-62 cells incubated for 48 hrs by sulforhodamine B assay

HT-29 = experiment: cells; settings: Homo sapiens, time 48 hrs
Description: Growth inhibition of human HT-29 cells incubated for 48 hrs by sulforhodamine B assay

[4] = test system: Panel CNS (Carcinoma cell lines); experiment: cells; settings: Homo sapiens, time 48 hrs
Description: Growth inhibition of human Panel CNS (Carcinoma cell lines) incubated for 48 hrs by sulforhodamine B assay

SF-295 = experiment: cells; settings: Homo sapiens, time 48 hrs
Description: Growth inhibition of human SF-295 cells incubated for 48 hrs by sulforhodamine B assay

SNB-75 = experiment: cells; settings: Homo sapiens, time 48 hrs
Description: Growth inhibition of human SNB-75 cells incubated for 48 hrs by sulforhodamine B assay

HCT-116 = experiment: cells; settings: Homo sapiens, time 48 hrs
Description: Growth inhibition of human HCT-116 cells incubated for 48 hrs by sulforhodamine B assay

K562 = experiment: cells; settings: Homo sapiens, time 48 hrs
Description: Growth inhibition of human K562 cells incubated for 48 hrs by sulforhodamine B assay

TK-10 = experiment: cells; settings: Homo sapiens, time 48 hrs
Description: Growth inhibition of human TK-10 cells incubated for 48 hrs by sulforhodamine B assay

A498 = experiment: cells; settings: Homo sapiens, time 48 hrs
Description: Growth inhibition of human A498 cells incubated for 48 hrs by sulforhodamine B assay

[5] = test system: Panel prostate (Carcinoma cell lines); experiment: cells; settings: Homo sapiens, time 48 hrs
Description: Growth inhibition of human Panel prostate (Carcinoma cell lines) incubated for 48 hrs by sulforhodamine B assay

SK-MEL-28 = experiment: cells; settings: Homo sapiens, time 48 hrs
Description: Growth inhibition of human SK-MEL-28 cells incubated for 48 hrs by sulforhodamine B assay

A549 = experiment: cells; settings: Homo sapiens, time 48 hrs
Description: Growth inhibition of human A549/ATCC cells incubated for 48 hrs by sulforhodamine B assay

NCI-H460 = experiment: cells; settings: Homo sapiens, time 48 hrs
Description: Growth inhibition of human NCI-H460 cells incubated for 48 hrs by sulforhodamine B assay

HOP-92 = experiment: cells; settings: Homo sapiens, time 48 hrs
Description: Growth inhibition of human HOP-92 cells incubated for 48 hrs by sulforhodamine B assay

UACC-257 = experiment: cells; settings: Homo sapiens, time 48 hrs
Description: Growth inhibition of human UACC-257 cells incubated for 48 hrs by sulforhodamine B assay

MDA-MB-468 = experiment: cells; settings: Homo sapiens, time 48 hrs
Description: Growth inhibition of human MDA-MB-468 cells incubated for 48 hrs by sulforhodamine B assay

[6] = test system: Panel ovarian (Carcinoma cell lines); experiment: cells; settings: Homo sapiens, time 48 hrs
Description: Growth inhibition of human Panel ovarian (Carcinoma cell lines) incubated for 48 hrs by sulforhodamine B assay

PC-3 = experiment: cells; settings: Homo sapiens, time 48 hrs
Description: Growth inhibition of human PC-3 cells incubated for 48 hrs by sulforhodamine B assay

OVCAR-3 = experiment: cells; settings: Homo sapiens, time 48 hrs
Description: Growth inhibition of human OVCAR-3 cells incubated for 48 hrs by sulforhodamine B assay

[7] = test system: Panel leukemia (Carcinoma cell lines); experiment: cells; settings: Homo sapiens, time 48 hrs
Description: Growth inhibition of human Panel leukemia (Carcinoma cell lines) incubated for 48 hrs by sulforhodamine B assay

Hs-578T = experiment: cells; settings: Homo sapiens, time 48 hrs
Description: Growth inhibition of human Hs-578T cells incubated for 48 hrs by sulforhodamine B assay

OVCAR-4 = experiment: cells; settings: Homo sapiens, time 48 hrs
Description: Growth inhibition of human OVCAR-4 cells incubated for 48 hrs by sulforhodamine B assay

OVCAR-8 = experiment: cells; settings: Homo sapiens, time 48 hrs
Description: Growth inhibition of human OVCAR-8 cells incubated for 48 hrs by sulforhodamine B assay

HCT-15 = experiment: cells; settings: Homo sapiens, time 48 hrs
Description: Growth inhibition of human HCT-15 cells incubated for 48 hrs by sulforhodamine B assay

HOP-62 = experiment: cells; settings: Homo sapiens, time 48 hrs
Description: Growth inhibition of human HOP-62 cells incubated for 48 hrs by sulforhodamine B assay

IGROV-1 = experiment: cells; settings: Homo sapiens, time 48 hrs
Description: Growth inhibition of human IGROV-1 cells incubated for 48 hrs by sulforhodamine B assay

KM12 = experiment: cells; settings: Homo sapiens, time 48 hrs
Description: Growth inhibition of human KM12 cells incubated for 48 hrs by sulforhodamine B assay

UO-31 = experiment: cells; settings: Homo sapiens, time 48 hrs
Description: Growth inhibition of human UO-31 cells incubated for 48 hrs by sulforhodamine B assay

RXF 393 = experiment: cells; settings: Homo sapiens, time 48 hrs
Description: Growth inhibition of human RXF 393 cells incubated for 48 hrs by sulforhodamine B assay

LOX IMVI = experiment: cells; settings: Homo sapiens, time 48 hrs
Description: Growth inhibition of human LOX IMVI cells incubated for 48 hrs by sulforhodamine B assay

CCRF-CEM = experiment: cells; settings: Homo sapiens, time 48 hrs
Description: Growth inhibition of human CCRF-CEM cells incubated for 48 hrs by sulforhodamine B assay

[8] = test system: Panel renal (Carcinoma cell lines); experiment: cells; settings: Homo sapiens, time 48 hrs
Description: Growth inhibition of human Panel renal (Carcinoma cell lines) incubated for 48 hrs by sulforhodamine B assay

[9] = test system: Panel colon (Carcinoma cell lines); experiment: cells; settings: Homo sapiens, time 48 hrs
Description: Growth inhibition of human Panel colon (Carcinoma cell lines) incubated for 48 hrs by sulforhodamine B assay

MDA-MB-231 = experiment: cells; settings: Homo sapiens, time 48 hrs
Description: Growth inhibition of human MDA-MB-231/ATCC cells incubated for 48 hrs by sulforhodamine B assay

[10] = read-out: LC50 (the source's name)

GI50 (NCI-H226): 18800 nM
GI50 (MCF7): 3210 nM
GI50 (NCI-H23): 11900 nM
GI50 (NCI-H522): 19900 nM
GI50 (U-251): 3280 nM
GI50 [2]: 9950 nM
GI50 (NCI-H322M): 11000 nM
GI50 [3]: 6620 nM
GI50 (HT-29): 2160 nM
GI50 [4]: 9250 nM
GI50 (HCT-116): 5900 nM
GI50 (K562): 2050 nM
GI50 [5]: 13400 nM
GI50 (SK-MEL-28): 1890 nM
GI50 (A549): 15600 nM
GI50 (NCI-H460): 5440 nM
GI50 (MDA-MB-468): 12300 nM
GI50 [6]: 15.6 µM
GI50 (PC-3): 12900 nM
GI50 (OVCAR-3): 14400 nM
GI50 [7]: 4240 nM
GI50 (OVCAR-4): 13.9 µM
GI50 (OVCAR-8): 17.8 µM
GI50 (HCT-15): 1940 nM
GI50 (CCRF-CEM): 3740 nM
GI50 [8]: 13.2 µM
GI50 [9]: 4850 nM
GI50 (MDA-MB-231): 2110 nM
SMILES: CC(C)c1ccc(Nc2ccc3c(OCCCN4CCN(C)CC4)cccc3n2)cc1
GI50 [1]: 7760 nM
GI50 (cells): 13200 nM
GI50 (SR): 2850 nM
GI50 (UACC-62): 2170 nM
GI50 (SF-295): 3630 nM
GI50 (SNB-75): 12.8 µM
GI50 (TK-10): 16500 nM
GI50 (A498): 16400 nM
GI50 (HOP-92): 10600 nM
GI50 (UACC-257): 5650 nM
GI50 (Hs-578T): 16900 nM
GI50 (HOP-62): 11900 nM
GI50 (IGROV-1): 16.1 µM
GI50 (KM12): 11300 nM
GI50 (UO-31): 12900 nM
GI50 (RXF 393): 7280 nM
GI50 (LOX IMVI): 1860 nM

GI50 (NCI-H226): 2760 nM
GI50 (MCF7): 1680 nM
GI50 (NCI-H23): 2210 nM
GI50 (NCI-H522): 1720 nM
GI50 (U-251): 1850 nM
GI50 [2]: 2480 nM
GI50 (NCI-H322M): 2530 nM
GI50 [3]: 2010 nM
GI50 (HT-29): 1530 nM
GI50 [4]: 2160 nM
GI50 (HCT-116): 2760 nM
GI50 (K562): 1910 nM
GI50 [5]: 2850 nM
GI50 (SK-MEL-28): 1820 nM
GI50 (A549): 2960 nM
GI50 (NCI-H460): 3070 nM
GI50 (MDA-MB-468): 2080 nM
GI50 [6]: 3.07 µM
GI50 (PC-3): 2080 nM
GI50 (OVCAR-3): 3080 nM
GI50 [7]: 2180 nM
GI50 (OVCAR-4): 3.75 µM
GI50 (OVCAR-8): 4.03 µM
GI50 (HCT-15): 1400 nM
GI50 (CCRF-CEM): 2480 nM
GI50 [8]: 2.42 µM
GI50 [9]: 1970 nM
GI50 (MDA-MB-231): 1530 nM
SMILES: Fc1cc(Nc2ccc3c(OCCCN4CCOCC4)cccc3n2)ccc1Cl
GI50 [1]: 2240 nM
GI50 (cells): 2410 nM
GI50 (SR): 1690 nM
GI50 (UACC-62): 2320 nM
GI50 (SF-295): 1970 nM
GI50 (SNB-75): 1.86 µM
GI50 (TK-10): 2010 nM
GI50 (A498): 2420 nM
GI50 (HOP-92): 2400 nM
GI50 (UACC-257): 2180 nM
GI50 (Hs-578T): 2190 nM
GI50 (HOP-62): 1710 nM
GI50 (IGROV-1): 3.19 µM
GI50 (KM12): 2300 nM
GI50 (UO-31): 1650 nM
GI50 (RXF 393): 2160 nM
GI50 (LOX IMVI): 1710 nM

SMILES: CN1CCN(CCCOc2cccc3nc(Nc4ccc(Cl)c(F)c4)ccc23)CC1
GI50 (NCI-H226): 2050 nM
GI50 [1]: 1820 nM
TGI [1]: 3.89 µM
CC50 [1, 10]: 9.12 µM
GI50 (cells): 1750 nM
LC50 (50% lethal concentration) (cells): 9.98 µM
TGI (cells): 3.88 µM
GI50 (MCF7): 1310 nM
GI50 (NCI-H23): 1750 nM
GI50 (NCI-H522): 1750 nM
GI50 (U-251): 1810 nM
GI50 [2]: 1840 nM
TGI [2]: 4.5 µM
CC50 [2, 10]: 13.2 µM
GI50 (NCI-H322M): 1700 nM
GI50 [3]: 1820 nM
LC50 [3]: 6.77 µM
TGI [3]: 3.5 µM
GI50 (UACC-62): 2050 nM
GI50 (HT-29): 1410 nM
GI50 [4]: 1740 nM
TGI [4]: 3.35 µM
CC50 [4, 10]: 6.46 µM
GI50 (SF-295): 1790 nM
GI50 (HCT-116): 1560 nM
GI50 (K562): 1470 nM
GI50 (TK-10): 1810 nM
GI50 (A498): 2390 nM
GI50 [5]: 1760 nM
LC50 (concentration killing 50% of cells) [5]: 6.21 µM
TGI [5]: 2800 nM
GI50 (SK-MEL-28): 1720 nM
GI50 (A549): 1960 nM
GI50 (NCI-H460): 1910 nM
GI50 (HOP-92): 1330 nM
GI50 (UACC-257): 2040 nM
GI50 (MDA-MB-468): 1720 nM
GI50 [6]: 1.99 µM
LC50 [6]: 11.3 µM
TGI [6]: 4.87 µM
GI50 (PC-3): 1760 nM
GI50 (OVCAR-3): 1700 nM
GI50 [7]: 1900 nM
LC50 (50% lethal concentration) [7]: 53.9 µM
TGI [7]: 4.28 µM
GI50 (Hs-578T): 2120 nM
GI50 (OVCAR-4): 3.13 µM
GI50 (OVCAR-8): 2.02 µM
GI50 (HCT-15): 1400 nM
GI50 (HOP-62): 1450 nM
GI50 (IGROV-1): 1.95 µM
GI50 (KM12): 1770 nM
GI50 (UO-31): 1570 nM
GI50 (RXF 393): 1960 nM
GI50 (LOX IMVI): 1640 nM
GI50 [8]: 2.22 µM
LC50 (lethal concentration 50%) [8]: 19.8 µM
TGI [8]: 6.21 µM
GI50 [9]: 1620 nM
TGI [9]: 3.17 µM
CC50 [9, 10]: 6.21 µM
GI50 (MDA-MB-231): 1680 nM

GI50 (NCI-H226): 3160 nM
GI50 (MCF7): 1740 nM
GI50 (NCI-H23): 2940 nM
GI50 (NCI-H522): 1820 nM
GI50 (U-251): 1980 nM
GI50 [2]: 3330 nM
GI50 (NCI-H322M): 2510 nM
GI50 [3]: 3020 nM
GI50 (HT-29): 1760 nM
GI50 [4]: 2180 nM
GI50 (HCT-116): 1820 nM
GI50 (K562): 2210 nM
GI50 [5]: 2490 nM
GI50 (SK-MEL-28): 1650 nM
GI50 (A549): 2600 nM
GI50 (NCI-H460): 2430 nM
GI50 (MDA-MB-468): 2080 nM
GI50 [6]: 4.02 µM
GI50 (PC-3): 1940 nM
GI50 (OVCAR-3): 2920 nM
GI50 [7]: 2350 nM
GI50 (OVCAR-4): 10.3 µM
GI50 (OVCAR-8): 3.54 µM
GI50 (HCT-15): 1750 nM
GI50 (CCRF-CEM): 2360 nM
GI50 [8]: 3.96 µM
GI50 [9]: 1830 nM
GI50 (MDA-MB-231): 1800 nM
SMILES: Clc1cc(Cl)cc(Nc2ccc3c(OCCCN4CCOCC4)cccc3n2)c1
GI50 [1]: 2570 nM
GI50 (cells): 2530 nM
GI50 (UACC-62): 2010 nM
GI50 (SF-295): 1920 nM
GI50 (TK-10): 2380 nM
GI50 (A498): 2390 nM
GI50 (HOP-92): 2030 nM
GI50 (UACC-257): 2050 nM
GI50 (Hs-578T): 2510 nM
GI50 (HOP-62): 2290 nM
GI50 (IGROV-1): 3.9 µM
GI50 (KM12): 2000 nM
GI50 (UO-31): 1510 nM
GI50 (RXF 393): 2260 nM
GI50 (LOX IMVI): 1720 nM

GI50 [7]: 3540 nM
SMILES: COc1cc2ncnc(Nc3ccc(F)c(Cl)c3)c2cc1OCCCN1CCOCC1 [GEFITINIB]
